Drawing on PubChem BioAssay AID720662 (NMMLSC, 2013), this text covers inhibition for 75 molecules.

Active and inactive are the calls of the source.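 How the source made its calls: active means inhibition of esterase secretion above 50%; inactive means inhibition of esterase secretion below 50%.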

In this experiment the test system is TALL-104 cells, BLT esterase secretion, DTNB absorbance. Briefly: inhibitors of granule serine esterase release, confirmation, TALL-104 cells, BLT/DTNB absorbance, CherryPick01 (AID 720662). The conditions noted are these: active compounds read high; dose or concentration not given here.
Take `CC1=C(C)CS(=O)N(S(=O)(=O)c2ccc(Cl)cc2)C1` (stereo not given): the inhibition is 99%.

Consider `CCc1nc2ccc(C(=O)NC3CCN(Cc4ccccc4)CC3)cn2c1N(C)Cc1cc2ccccc2s1`, for which the inhibition was -4% (inactive).

For `COc1ccc(-c2cc(NC=O)c3ncc(-c4cccc(OC)c4)n3c2)cc1`, the inhibition is 77%.

Turning to `N#Cc1ccc(NC(=O)Nc2ccc(Oc3ccc(NC(=O)Nc4ccc(C#N)cc4)cc3)cc2)cc1`, the inhibition was 36% (inactive).

Regarding `O=c1c2ccccc2sn1-c1ccccc1`, the inhibition was 68%.

Consider `CN(C)CCCNC(=S)NCC(c1ccc(Cl)cc1Cl)c1c[nH]c2ccccc12` (stereo not given), for which the inhibition was -3% (inactive).

With `COc1ccc([N+](=O)[O-])cc1Nc1c2ccccc2nc2ccccc12`, the inhibition is 10% (inactive).

In the case of `CCCCn1c(=N)n(CC(=O)c2ccc(Br)s2)c2ccccc21`, the inhibition is 91%.

For the molecule `CN(c1ccccc1)S(=O)(=O)c1cccc(C(=O)NCCc2c[nH]c3ccccc23)c1`, the inhibition is 23% (inactive).

`COc1cccc(-c2cnc3c(NC=O)cc(-c4ccccc4)cn23)c1`: the inhibition is 43% (inactive).

Regarding `CCOc1ccc2nc(C)cc(Nc3cccc([N+](=O)[O-])c3)c2c1`, the inhibition was 95%.

In the case of `CN1CCN(c2cc(-c3ccccc3)nc3cc(-c4ccc(F)cc4)nn23)CC1`, the inhibition was 79%.

`CC1=NOC(=O)/C1=C/c1ccc(-c2ccc(Cl)cc2)o1`: the inhibition was 73%.

In the case of `CCOC(=O)c1cc(-c2csc(Nc3c(C)cc(C)cc3C)n2)on1`, the inhibition is 68%.

As for `COc1ccc(-c2cc(NC=O)c3ncc(-c4ccccc4)n3c2)cc1OC`, the inhibition is 63%.

In the case of `CCN(CC)CCCNc1ccc(-c2nnc(-c3ccc(OCC(C)C)cc3)o2)cn1`, the inhibition was 52%.

Take `Cn1cncc1C#Cc1c(-c2ccc(S(C)(=O)=O)cc2)sc2ccccc12`: the inhibition was 13% (inactive).

Turning to `O=C1C=CC(=O)N1N(c1ccccc1)c1ccccc1`, the inhibition was 27% (inactive).

On to `COC(=O)c1c(NC(=O)c2ccc(C(=O)c3ccccc3)cc2)sc2c1CC(C)(C)NC2(C)C`, for which the inhibition was 5% (inactive).

With `COc1cccc(NC(=O)Nc2nc(-c3ccc(OC)c(OC)c3)cs2)c1`, the inhibition was 96%.

As for `CCCNC(=O)Cn1sc2nc(C)cc(C)c2c1=O`, the inhibition is 38% (inactive).

Consider `O=c1c2ccccc2sn1-c1ccccc1F`, for which the inhibition is 38% (inactive).

Regarding `CC(=O)Nc1ccc2sn(-c3ccccc3)c(=O)c2c1`, the inhibition was 20% (inactive).

Consider `Cc1cc(C)c2nc(C)cc(N/N=C/c3ccc(O)cc3)c2c1`, for which the inhibition was 88%.

Regarding `CCOc1ccccc1CNC(=O)C1CCN(c2nnc(C)c3c(C)n(-c4ccc(C)cc4)nc23)CC1`, the inhibition was 94%.

Regarding `CCOC(=O)c1nnc(-c2ccccc2)nc1Sc1ccccc1Cl`, the inhibition is -8% (inactive).

On to `CCC(=C(c1ccc(OC)cc1)c1ccc(OC)cc1)c1cn(CC(O)CN2CCN(C)CC2)c2ccccc12` (stereo not given), for which the inhibition was 1% (inactive).

In the case of `CC1COCC(C)N1C1=C(Cl)C(=O)c2ccccc2C1=O` (stereo not given), the inhibition is 97%.

Consider `CCCCC[C@@H](C)N1C[C@@H](COCc2ccccc2)Oc2cc(N3CC[C@@H](N(C)C)C3)ccc2S1(=O)=O`, for which the inhibition was 76%.

For the molecule `Cc1cc(N2CCN(c3nc(-c4ccc([N+](=O)[O-])cc4)cs3)CC2)c2ccccc2n1`, the inhibition is 80%.

For `Fc1ccc(/C=C\c2nccc3c2[nH]c2ccccc23)cc1`, the inhibition was 86%.

Take `O=C1CC(Sc2nnnn2-c2ccccc2)C(=O)N1c1cccc(Cl)c1` (stereo not given): the inhibition was 72%.

As to `CCOC(=O)c1c(NC(=O)COc2ccccc2OCC)sc2c1CC(C)(C)NC2(C)C`, the inhibition was 55%.

In the case of `CCCCC[C@@H](C)N1C[C@@H](COCc2ccccc2)Oc2cc(N3CC[C@H](N(C)C)C3)ccc2S1(=O)=O`, the inhibition is 74%.

Consider `CCOc1ccc2[nH]c3c(N4CCc5ccccc5C4)ncnc3c2c1`, for which the inhibition is -5% (inactive).

Consider `c1ccc(CNc2nc(NCC3CC3)nc3cc(-c4ccccc4)sc23)cc1`, for which the inhibition was 86%.

`CCCS(=O)(=O)Nc1ccc(Nc2c3ccccc3nc3ccccc23)c(OC)c1`: the inhibition was 81%.

As to `O=c1c2ccc(F)cc2sn1-c1ccccc1`, the inhibition was 61%.

`CCCCC[C@@H](C)N1C[C@H](COCc2ccccc2)Oc2cc(N3CC[C@@H](N(C)C)C3)ccc2S1(=O)=O`: the inhibition is 64%.

With `O=C(Cn1sc2ccccc2c1=O)NC12CC3CC(CC(C3)C1)C2`, the inhibition is 33% (inactive).

As for `Cn1sc(=O)c2cc(S(=O)(=O)NC3CC3)ccc21`, the inhibition was 63%.

As for `Nc1c(C(=O)NCc2ccc(F)cc2)c2nc3ccccc3nc2n1CCCN1CCOCC1`, the inhibition is 15% (inactive).

On to `CC(C)CNC(=O)c1c(N)n(Cc2ccc3c(c2)OCO3)c2nc3ccccc3nc12`, for which the inhibition is 3% (inactive).

Consider `COC(=O)[C@]12CCCCC=C1N(Cc1cccc3ccccc13)C(=O)[C@H](CC(=O)NCc1ccc(OC)c(OC)c1)C2`, for which the inhibition was 14% (inactive).

For `CN(C)CCNC(=O)c1ccc(-c2cn3c(-c4ccc(Oc5ccccc5)cc4)cnc3cn2)cc1`, the inhibition was 14% (inactive).

With `O=C(CN1C(=O)/C(=C\c2cccc(Br)c2)Oc2ccccc21)NCCCN1CCOCC1`, the inhibition was 24% (inactive).

Consider `O=CNc1cc(-c2ccsc2)cn2c(-c3ccccc3)cnc12`, for which the inhibition was 41% (inactive).

Take `COc1ccc(-n2sc3ccccc3c2=O)cc1`: the inhibition was 45% (inactive).

With `CCCCCCSc1cccc(-c2nc3ccccn3c2NCc2ccccc2)c1`, the inhibition is 7% (inactive).

Consider `COc1ccccc1CNc1nc(NCc2ccc3occc3c2)c2sccc2n1`, for which the inhibition is 22% (inactive).

`O=S(=O)(c1ccccc1)c1nnn2c1nc(NC1CCN(Cc3ccccc3)CC1)c1cc(Cl)ccc12`: the inhibition is 88%.

Consider `CC(=O)Nc1ccc2c(=O)n(-c3ccccc3)sc2c1`, for which the inhibition is 25% (inactive).

For the molecule `Cc1ccc(-n2nnc3c(=O)oc4ccccc4c32)cc1`, the inhibition was 94%.

With `CCOC(=O)c1c(CSc2ccccc2)n(C)c2cc(Br)c(O)c(CN(C)C)c12`, the inhibition was 25% (inactive).

Consider `O=C(OCc1ccccc1)N(CCCCN(CCCNCc1ccccc1)C(=O)OCc1ccccc1)CCCNCc1ccccc1`, for which the inhibition is 88%.

For `CCc1ccc(/C=C2/Sc3ccccc3N(CC(=O)NCCCN3CCOCC3)C2=O)cc1`, the inhibition is 14% (inactive).

As to `COc1cc(-c2coc3c(C(=O)NCc4ccc(OC)c(OC)c4)cccc23)ccc1O`, the inhibition is 20% (inactive).

Turning to `CCOc1ccc2nc(N(CCCN(C)C)C(=O)c3ccc(S(=O)(=O)N4CCc5ccccc5C4)cc3)sc2c1`, the inhibition is 91%.

With `COc1ccc(N2C(=O)CC(Sc3nnc(-c4ccccc4)o3)C2=O)cc1` (stereo not given), the inhibition is 89%.

As for `Cc1ccc(S(=O)(=O)n2ccc3c(OCCOCCNCc4ccc(F)cc4)cccc32)cc1`, the inhibition is 67%.

Consider `OC(CNCC(c1ccc(Cl)cc1Cl)c1c[nH]c2ccccc12)c1ccccc1` (stereo not given), for which the inhibition was 2% (inactive).

As to `COc1cccc(-c2cnc3c(NC(C)=O)cc(-c4ccsc4)cn23)c1`, the inhibition was 64%.

On to `CC1(C(=O)OCC(=O)Nc2nc(-c3ccc(F)c(F)c3)cs2)CC1(Cl)Cl` (stereo not given), for which the inhibition is -8% (inactive).

Consider `N#Cc1c(Nc2ccccc2Cl)s[nH]c1=O`, for which the inhibition was 92%.

For the molecule `CN1CCN(CCCNC(=O)c2ccc(/C=C3\Sc4ccccc4N(Cc4ccc(F)cc4)C3=O)cc2)CC1`, the inhibition is -12% (inactive).

`O=C(Nc1ccc(F)cc1)c1nc(S(=O)(=O)Cc2ccccc2)ncc1Cl`: the inhibition was 97%.

`Cc1ccc(Nc2nc(NCc3ccco3)c3ccccc3n2)cc1`: the inhibition was 12% (inactive).

In the case of `CC(C)(c1ccccc1)c1ccc(OCC(O)CNC2CCN(Cc3ccccc3)CC2)cc1` (stereo not given), the inhibition is 83%.

Turning to `CCOc1cc(CNCCc2ccc(S(N)(=O)=O)cc2)ccc1OCc1ccc(Cl)cc1`, the inhibition was 90%.

With `COC(=O)c1c(NC(=O)c2nc3ccccc3s2)sc2c1CC(C)(C)NC2(C)C`, the inhibition is 51%.

Turning to `COc1cccc(-c2cnc3c(NC(C)=O)cc(-c4ccccc4OC)cn23)c1`, the inhibition is 68%.

Consider `COc1ccccc1CNc1nc(NCc2ccc(C(C)C)cc2)c2sccc2n1`, for which the inhibition was 54%.

For `O=C1Nc2ccc(Br)cc2/C1=C/C(=O)c1ccccc1`, the inhibition was 3% (inactive).

Consider `CCc1ccc2nc(N(CCCN(C)C)C(=O)c3ccc(S(=O)(=O)N4CCc5ccccc5C4)cc3)sc2c1`, for which the inhibition was 67%.

With `O=C(Cn1sc2ccccc2c1=O)Nc1ccc(F)cc1`, the inhibition is 38% (inactive).
